EMSA data for 1 compound are collected here from publication PMC7572726 (Nature, 2020).

Common to all, as to assay: EMSA
What all share (format): binding
Holding throughout (details): labelled compound (32P, ~1 uM), 20 uM protein; pH 7.5, 25 C
A general note: A gel shift assay detects complexes by their altered migration in electrophoresis.

One experiment has as its target T1, FdSTING (Flavobacterium daejeonense, UniProt P0DUD9).
T1 sequence (P0DUD9 1-311): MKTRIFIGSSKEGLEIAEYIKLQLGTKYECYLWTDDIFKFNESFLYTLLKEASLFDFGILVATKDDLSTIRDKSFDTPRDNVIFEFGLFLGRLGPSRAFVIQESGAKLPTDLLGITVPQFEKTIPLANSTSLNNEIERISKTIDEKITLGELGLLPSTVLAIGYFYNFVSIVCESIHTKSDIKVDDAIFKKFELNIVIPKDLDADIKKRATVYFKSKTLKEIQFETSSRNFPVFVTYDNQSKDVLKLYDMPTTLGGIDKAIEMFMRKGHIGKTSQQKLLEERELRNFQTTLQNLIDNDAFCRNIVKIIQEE

In another experiment the target is T2, NdSTING (Niabella drilacis, UniProt A0A1G6LGU2).
T2 sequence (A0A1G6LGU2 1-312): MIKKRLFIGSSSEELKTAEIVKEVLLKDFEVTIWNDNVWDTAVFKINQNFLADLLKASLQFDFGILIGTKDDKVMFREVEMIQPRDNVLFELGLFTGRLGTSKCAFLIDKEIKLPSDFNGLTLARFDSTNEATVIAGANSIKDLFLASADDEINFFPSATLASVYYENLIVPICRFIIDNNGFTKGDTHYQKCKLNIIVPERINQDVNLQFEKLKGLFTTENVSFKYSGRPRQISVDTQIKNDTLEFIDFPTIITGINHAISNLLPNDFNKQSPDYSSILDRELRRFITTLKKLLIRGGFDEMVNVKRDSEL

The target in another experiment is AaSTING (Aggregatibacter actinomycetemcomitans, UniProt A0A5D0EMF2).
Sequence of AaSTING (A0A5D0EMF2 whole entry): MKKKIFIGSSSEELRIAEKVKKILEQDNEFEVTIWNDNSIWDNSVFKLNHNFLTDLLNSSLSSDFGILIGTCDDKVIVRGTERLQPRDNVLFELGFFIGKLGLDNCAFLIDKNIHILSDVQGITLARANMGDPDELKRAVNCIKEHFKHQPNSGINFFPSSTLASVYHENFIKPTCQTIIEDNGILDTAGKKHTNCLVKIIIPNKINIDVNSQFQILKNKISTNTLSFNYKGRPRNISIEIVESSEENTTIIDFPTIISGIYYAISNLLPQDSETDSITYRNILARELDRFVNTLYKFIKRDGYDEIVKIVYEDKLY
The next experiment deals with T3, LbSTING (Lachnospiraceae bacterium RUG226, UniProt P0DUE0).
T3 sequence (P0DUE0 1-316): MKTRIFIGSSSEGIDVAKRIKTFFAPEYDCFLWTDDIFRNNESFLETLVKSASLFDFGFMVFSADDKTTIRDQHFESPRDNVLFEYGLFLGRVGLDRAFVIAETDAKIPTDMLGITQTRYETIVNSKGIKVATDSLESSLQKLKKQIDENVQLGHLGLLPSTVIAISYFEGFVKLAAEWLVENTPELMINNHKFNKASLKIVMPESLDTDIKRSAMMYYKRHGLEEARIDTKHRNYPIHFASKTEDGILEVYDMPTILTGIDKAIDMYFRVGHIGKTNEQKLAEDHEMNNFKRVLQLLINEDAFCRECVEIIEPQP

Take `Nc1nc2c(ncn2[C@@H]2O[C@@H]3COP(=O)(O)O[C@H]4[C@@H](O)[C@H](n5cnc6c(=O)[nH]c(N)nc65)O[C@@H]4COP(=O)(O)O[C@H]3[C@H]2O)c(=O)[nH]1` [c-di-GMP]: the EMSA result at FdSTING is given as “diverse panel of bacterial STING homologues demonstrates conservation of c-di-GMP binding”; on NdSTING, “diverse panel of bacterial STING homologues demonstrates conservation of c-di-GMP binding”; on AaSTING, “Bacterial STING receptors specifically recognize c-di-GMP”; on LbSTING, “Bacterial STING receptors specifically recognize c-di-GMP”.
